Laboratory results reported in US7579488B2 (Eli Lilly and Company, priority 2003, dated 2009).
Several values for one entry are separate records, joined by “and”; a condition that tells them apart may be missing. Equal entries are not always repeated. Where two headings read alike, the source gives them in different places.

How the values were obtained:
female DBF mice = test: Mouse hypercalcemia assay; conditions: oral gavage for 6 days
Description: The Mouse Hypercalcemia Assay
The Mouse Hypercalcemia Assay is a six day hypercalcemia test for toxicity and selectivity.
(4) Materials and Method for the Mouse Hypercalcemia Assay:
Weanling, virus-antibody-free, five to six weeks old female DBF mice (Harlan, Indianapolis, Ind.) are used for all the studies. Animals are allowed to acclimate to local vivarium conditions for 2 days. […] The animals then are divided into groups with 4-5 mice per group. Different doses of test compounds prepared in 10% Ethanol and 90% sesame oil are administered to mice orally via gavage for 6 days. 1α-25(OH)2D3 0.5 μg/kg/d was also given to one group of mice as the positive control. […] Raw data of group differences is assessed by analysis of variance (ANOVA) using Fisher's protected least significant difference (PLSD) where the significance level was P<0.05.

rat osteocalcin promoter = test: OCN (osteocalcin) promoter assay; format: cell-based; conditions: RG-15 (ROS 17/2.8) cells
Method: 3. The OCN (Osteocalcin) Promoter Assay
The OCN Promoter Assay is an indicator and marker for osteoporosis. […] Preferred assay results are less than 50 nM.
(3) Materials and Method for The OCN Promoter Assay:
The activation of osteocalcin by VDR ligands was evaluated in a rat osteoblast-like cell line RG-15 (ROS 17/2.8) stably expressing rat osteocalcin promoter fused with luciferase reporter gene. […] Confluent RG-15 cells maintained in DMEM/F-12 medium (3:1) containing 5% FBS, 300 μg/ml G418 and at 37° C. under 5% CO2/95% air atmosphere were trypsinized (0.25% trypsin) and plated into white opaque 96-well cell culture plates (25000 cells/well). After 24 hr, cells (in DMEM/F-12 medium+2% FBS) were treated with various concentrations of compounds, dissolved in DMSO. The final DMSO concentration remained at 0.01% (v/v). After 48 hr treatment, the medium was removed, cells were lysed with 50 μl of lysis buffer (From Luciferase reporter assay system, Roche Diagnostics, Indianapolis, Ind.) and assayed for luciferase activity using the Luciferase Reporter Gene Assay kit from Boehringer Mannheim as per manufacturer's specifications.

IL-10 = IL-10 induction assay; format: cell-based; conditions: Homo sapiens, PBMC
Description: 6. The IL-10 Induction Assay
This is an in vitro efficacy assay for psoriasis, abscess and adhesion. Psoriasis involves both keratinocytes and immune cells. IL-10 is a unique cytokine because it is anti-inflammatory and immunosuppressive. This assay tells us whether a VDRM is able to function as an agonist in PBMCs ([…]) or not.
(6) Materials and Method for Human IL-10 Induction Assay:
Isolation of Peripheral Blood Mononuclear Cells (PBMCs):
B. Prepare sterile tubes with ficol.
C. Add diluted blood to tubes.
E. Discard the top layer and collect the cells from middle layer.
F. Divide all cells into four tubes and add media.
H. Aspirate off media and resuspend.
J. Centrifuge. at 1200 rpm for 10 minutes.
M. Dissolve PHA in water.
N. Plate TPA/PHA treated PBMCs in well plates.
Sample Collection and Assay:
S. Remove all the cells by centrifugation and assay the supernatant for IL-10 by immunoassay.
1) T. Perform […] using anti-human IL-10 antibody coated beads, as described by the manufacturer (Linco Research Inc., St. Charles, Mo.).

KERtr cells = test: Keratinocyte proliferation assay; format: cell-based; conditions: Homo sapiens, read-out: Kera. Prolif. IC50
Method: 5. The Keratinocyte Proliferation Assay
This Assay is indicative for the treatment of psoriasis.
(5) The Keratinocyte Proliferation Assay:
KERtr cells (Human skin keratinocyte transformed with a retrovirus vector, obtained from ATCC) were plated in 96-well flat-bottomed plates (3000 cells/well) in 100 μl keratinocyte serum free medium supplemented with bovine pituitary extract in the absence of EGF (Life Technologies, Rockville, Md.) and incubated at 37° C. for two days. The cells were treated with various concentrations of VDR ligands (ten-fold serial dilution from 10,000 nM to 0.1 nM in triplicate), dissolved in 100 μl keratinocyte serum free medium supplemented with bovine pituitary extract in the absence of EGF and incubated at 37° C. for 72 hr. […] Potency values (IC50) values were determined as the concentration (nM) of compound that elicited a half-maximal response.

VDR = target: T1, VDR (Homo sapiens, UniProt P11473); test: VDR CTF (Caco-2 cell co-transfection) assay; format: cell-based; conditions: Caco-2 cells, pGal4-VDR-LBD co-transfection, luciferase; several values separated by /
T1 construct: the receptor expression vector pGal4-VDR-LBD (10 ng); expressed in transfected cells; host or cells: Caco-2 cells
T1 sequence (P11473 127-423 limits assumed): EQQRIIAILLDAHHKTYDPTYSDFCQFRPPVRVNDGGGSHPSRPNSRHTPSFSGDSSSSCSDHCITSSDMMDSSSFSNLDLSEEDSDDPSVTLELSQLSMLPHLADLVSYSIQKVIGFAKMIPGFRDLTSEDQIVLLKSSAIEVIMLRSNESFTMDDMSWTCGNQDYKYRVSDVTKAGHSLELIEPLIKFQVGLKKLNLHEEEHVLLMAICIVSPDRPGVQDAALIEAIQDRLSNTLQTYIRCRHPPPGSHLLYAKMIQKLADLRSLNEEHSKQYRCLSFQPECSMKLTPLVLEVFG
Method: 2. The Caco-2 Cell Co-Transfection Assay:
The Caco-2 cell assay is an indicator for the undesirable condition of hypercalcemia. This co-transfection assay is a surrogate assay for in vivo calcemic activity of VDR ligands. […] Preferred assay results are greater than 1000 nM.
(2) Materials and Method for the Caco-2 Cell Assay:
Caco-2 cells, grown in phenol red free, DMEM (Invitrogen, Carlsbad, Calif.) containing 10% charcoal-stripped FCS (Hyclone, Logan, Utah), were transfected with Fugene 6 reagent (Roche Diagnostics, Indianapolis, Ind.). Cells (5000/well) were plated 18 h before transfection in a 96 well plate. The Cells were transfected with Gal4-responsive reporter pFRLuc (150 ng, Stratagene, La Jolla Calif.) and the receptor expression vector pGal4-VDR-LBD (10 ng), along with Fugene 6 reagent (0.2 μl/well). The DNA-Fugene complex was formed by incubating the mixture for 30 min at room temperature. The cells were transfected in triplicate for 5 h, and treated with various concentrations of VDR ligands (form 0.01 nM to 10,000 nM concentration range) 18 h post-transfection. The luciferase activity was quantified using Steady-Glo reagent kit (Promega, Madison, Wis.) as per manufacturer's specifications.

RXR-VDR heterodimer = target: T2, RXR-VDR heterodimer (Homo sapiens, UniProt P11473); test: RXR-VDR heterodimerization assay (SaOS-2 cells); format: cell-based; conditions: Gal4-RXR-DEF/VP16-VDR-LBD luciferase reporter, several values in a cell separated by /
T2 construct: Add the Gal4-RXR-DEF and VP16-VDR-LBD; expressed in transfected cells; host or cells: SaOS-2 cells
T2 sequence (P11473 127-423 limits assumed): T1 sequence (P11473 127-423 limits assumed)
T2 sequence (P19793 201-462 partner limits assumed): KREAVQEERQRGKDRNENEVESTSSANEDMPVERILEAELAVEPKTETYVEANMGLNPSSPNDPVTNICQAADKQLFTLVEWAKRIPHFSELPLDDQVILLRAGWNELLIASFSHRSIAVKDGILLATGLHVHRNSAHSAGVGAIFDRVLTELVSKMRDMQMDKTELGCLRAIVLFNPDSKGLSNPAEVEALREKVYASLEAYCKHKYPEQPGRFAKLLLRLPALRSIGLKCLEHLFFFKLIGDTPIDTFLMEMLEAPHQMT
Method: 1. The RXR-VDR Heterodimer Assay:
This assay provides the VDR activity of a test compound.
(1) Materials and Method for RXR-VDR Heterodimerization Assay:
Luciferase Assay Reagent: • Use Steady-Glo Luciferase Reagent from Promega (Cat #E2550) Consists of: a. E2533 Assay Substrate, lyopholized product and b. E2543 Assay Buffer. • Thaw at room temperature • Store Cell Harvesting Aspirate media from culture flask, rinse cells with HBSS and aspirate. Add trypsin and incubate. When cells appear detached, resuspend cells in growth media. Transfer into a new flask with fresh growth media for passaging the cells. Plate well plates and two extra plates A. Cell Count Mix the cell suspension using pipette Use Hematocytometer to count the cells Load cell suspension onto the hemocytometer chamber Count cells. […] In sterile flask add cell suspension to plating media. Mix. Add cells/well. Place the cells in the incubator. Cells should be about 75% confluent prior to transfection. DAY 2: Transfection Step 1: DNA and Media Add plain DMEM media to tubes for mixing the DNA Add the Reporter gene pFR-LUC Add the Gal4-RXR-DEF and VP16-VDR-LBD Step 2: FuGENE and Media Prepare plain DMEM media in a ubes for mixing FuGENE Add FuGENE 6 Transfection Reagent Incubate Step 3: FuGENE, DNA and Media Complex Add FuGENE Media complex from step 2 to DNA Media complex from step 1 Incubate Step 4: FuGENE, DNA and Media Complex to-well plate Add FuGENE-DNA-Media complex from step 3 to each plate Incubate. […] Day 4: Luciferase Assay Read the plates after drug treatment Remove part of media from all the wells and leave remainder Add Steady-Glo Luciferase Reagent mixture/wells Incubate Count each well using a Luminescence counter, Top Count NXT by Packard
Set a delay between plates to reduce the background.

[1] = Rattus norvegicus, comparison compounds
[2] = comparison compounds, human PBMCs
[3] = serum ionized calcium 6 hours after last dosing
[4] = Rattus norvegicus, 48 h, 48 hr treatment, luciferase, several values separated by /
[5] = TPA/PHA stimulated human PBMCs, IL-10 in supernatant by immunoassay, several values separated by /
[6] = 72 h, BrdU incorporation, several values separated by /
[7] = 48 hr treatment, luciferase, several values separated by /

| SMILES | Mouse Hypercal (female DBF mice; comparison compounds) [µg/kg/day] | EC50 (rat osteocalcin promoter; [1]) [nM] | IC50 (IL-10; [2]) [nM] | IC50 (KERtr cells; comparison compounds) [nM] | Mouse Hypercal (female DBF mice; [3]) [µg/kg/day] | EC50 (VDR) [nM] | EC50 (rat osteocalcin promoter; [4]) [nM] | IC50 (IL-10; [5]) [nM] | IC50 (KERtr cells; [6]) [nM] | EC50 (rat osteocalcin promoter; [7]) [nM] | EC50 (RXR-VDR heterodimer) |
| --- | --- | --- | --- | --- | --- | --- | --- | --- | --- | --- | --- |
| CCC(CC)(c1ccc(OCC(O)CO)c(C)c1)c1ccc(OCC(O)C(C)(C)C)c(C)c1 (centres unmarked) [BB, 3-(4-{1-Ethyl-1-[4-(2-hydroxy-3,3-dimethyl-butoxy)-3-methyl-phenyl]-propyl}-2-methyl-phenoxy)-propane-1,2-diol, reference compound] | 20 | 8.24 | 28 | 10 | – | – | – | – | – | – | – |
| CCC(CC)(c1ccc(OCC(=O)C(C)(C)C)c(C)c1)c1cc2cc(C(=O)NCC(=O)O)ccc2o1 [Ex 7, [(2-{1-[4-(3,3-Dimethyl-2-oxo-butoxy)-3-methyl-phenyl]-1-ethylpropyl}-benzofuran-5-carbonyl)-amino]-acetic acid] | – | – | – | – | >300 | 412 | 0.4 | 24 | 5 | – | – |
| CCC(CC)(c1ccc(OCC(=O)C(C)(C)C)c(C(C)C)c1)c1cc2cc(C(=O)O)ccc2o1 [Ex 17] | – | – | – | – | – | 589 | – | 95 | 13 | – | – |
| CCC(CC)(c1ccc(OCC(O)C(C)(C)C)c(C)c1)c1cc2ccc(C(=O)O)cc2o1 (centres unmarked) [Ex 19, 2-{1-Ethyl-1-[4-(2-hydroxy-3,3-dimethyl-butoxy)-3-methyl-phenyl]-propyl}-benzofuran-6-carboxylic acid] | – | – | – | – | – | 620 | 1.4 | 34 | 8 | 0.9 | – |
| CCC(CC)(c1ccc(OCC(=O)C(C)(C)C)c(C)c1)c1cc(C)c2oc(C(=O)O)cc2c1 [Ex 21, 5-{1-[4-(3,3-dimethyl-2-oxo-butoxy)-3-methyl-phenyl]-1-ethyl-propyl}-7-methyl-benzofuran-2-carboxylic acid] | – | – | – | – | >1000 | 462 | 2 | 80 | 18 | 1 | 50 nM and 5 nM |
| CCC(CC)(c1ccc(OCC(=O)C(C)(C)C)c(C)c1)c1ccc2oc(C(=O)O)cc2c1 [Ex 30, 5-{1-[4-(3,3-dimethyl-2-oxo-butoxy)-3-methyl-phenyl]-1-ethyl-propyl}-benzofuran-2-carboxylic acid] | – | – | – | – | >1000 | 364 | 0.3 | 25 | 9 | – | – |
| CCC(CC)(c1ccc(OCC(O)C(C)(C)C)c(C)c1)c1ccc2oc(C(=O)O)cc2c1 (centres unmarked) [Ex 31, 5-{1-ethyl-1-[4-(2-hydroxy-3,3-dimethyl-butoxy)-3-methyl-phenyl]-propyl}-benzofuran-2-carboxylic acid] | – | – | – | – | – | 279 | 0.5 | 5.4 | 1 | – | 12 nM |
| CCC(CC)(c1ccc(OCC(=O)C(C)(C)C)c(C)c1)c1ccc2oc(C(=O)NCC(=O)O)c(C)c2c1 [Ex 38, [(5-{1-[4-(3,3-dimethyl-2-oxo-butoxy)-3-methyl-phenyl]-1-ethyl-propyl}-3-methyl-benzofuran-2-carbonyl)-amino]-acetic acid] | – | – | – | – | >30 | 314 | 0.5 | – | 22 | – | – |
| CCC(CC)(c1ccc(OCC(=O)C(C)(C)C)c(C)c1)c1cc2cc(C(=O)O)ccc2o1 [Ex. 2] | – | – | – | – | >1000 | 677 | 3 | – | 12 | – | 75 nM |
| CCC(CC)(c1ccc(OCC(=O)C(C)(C)C)c(C)c1)c1cc2cc(C(=O)Nc3nn[nH]n3)ccc2o1 [Ex. 11, 2-{1-[4-(3,3-dimethyl-2-oxo-butoxy)-3-methyl-phenyl]-1-ethyl-propyl}-benzofuran-5-carboxylic acid (2H-tetrazol-5-yl)-amide] | – | – | – | – | >1000 | 819 | – | > 2000 | 9 | – | 730 nM |
| CCc1cc(C(CC)(CC)c2cc3cc(C(=O)O)ccc3o2)ccc1OCC(=O)C(C)(C)C [Ex. 12] | – | – | – | – | >1000 | 515 | 0.7 | 49 | 16 | – | – |
| C=C1/C(=C\C=C2/CCC[C@]3(C)[C@@H]([C@H](C)/C=C/[C@@H](O)C4CC4)CC[C@@H]23)C[C@@H](O)C[C@@H]1O [FF, calcipotriol, reference compound] | – | 0.28 | 0.5 | 103 | – | – | – | – | – | – | – |
